Results: patent US10294248B2, “Beta-lactamase inhibitors” (VenatoRx Pharmaceuticals, Inc., priority 2013, dated 2019)

Columns and labels:
[1] = molecular target: T1, SHV-5 β-lactamase (Class A ESBL) (Klebsiella pneumoniae, UniProt P0A3M1); assay: β-Lactamase inhibition, SHV-5; type: biochemical
T1 construct: made in house; host or cells: E. coli BL21(DE3)
Procedure, shortened: (§1)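 Read-out is the rate of β-lactam ring hydrolysis monitored by absorbance: 300 nm for imipenem with KPC-2 and 260 nm for cefotaxime with SHV-5. Recombinant native enzymes were first incubated with compound at 37 °C for 15 min. The IC50 is the inhibitor concentration that halves the initial hydrolysis rate.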

[2] = molecular target: T2, KPC-2 β-lactamase (Class A carbapenemase) (Klebsiella pneumoniae, UniProt Q9F663); assay: β-Lactamase inhibition, KPC-2; type: biochemical; settings: imipenem substrate, 300 nm; 15 min preincubation at 37° C., PBS pH 7.4
T2 construct: made in house; host or cells: E. coli BL21(DE3)
Procedure, shortened: as §1

[3] = molecular target: T3, VIM-2 metallo-β-lactamase (Class B) (Pseudomonas aeruginosa, UniProt Q9K2N0); assay: β-Lactamase inhibition, VIM-2; type: biochemical; settings: nitrocefin 100 μM, 486 nm; 15 min preincubation at 37° C., PBS pH 7.4
T3 construct: made in house; host or cells: E. coli BL21(DE3)
Procedure, shortened: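 Purified VIM-2 preincubated with inhibitor for 15 min at 37° C, then nitrocefin (100 μM final) added and absorbance at 486 nm followed for 10 min. Maximum hydrolysis rates compared with inhibitor-free controls; IC50 fitted from percent inhibition across inhibitor concentrations.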

[4] = molecular target: T4, p99 AmpC β-lactamase (Class C) (Enterobacter cloacae, UniProt P05364); assay: β-Lactamase inhibition, p99 AmpC; type: biochemical
T4 construct: made in house; host or cells: E. coli BL21(DE3)

[5] = molecular target: T5, OXA-1 β-lactamase (Class D oxacillinase) (Escherichia coli, UniProt P13661); assay: β-Lactamase inhibition, OXA-1; type: biochemical; settings: nitrocefin 100 μM, 486 nm; 15 min preincubation at 37° C., PBS pH 7.4
T5 construct: made in house; host or cells: E. coli BL21(DE3)
Procedure, shortened: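 Untagged enzyme from E. coli BL21(DE3), purified by Capto S then Superdex 75; 15 min 37 °C preincubation with inhibitor; KPC-2 read with imipenem at 300 nm, SHV-5 with cefotaxime at 260 nm, OXA-1 with nitrocefin 100 μM final at 486 nm; 10 min kinetic read; IC50 vs uninhibited wells.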

[6] = test system: E. coli ESBL4 expressing CTX-M-15; assay: Broth microdilution MIC, E. coli ESBL4 CTX-M-15; type: cell-based; settings: fixed 4 μg/mL ceftazidime; CAMHB, 16-20 hours at 37° C.
Procedure, shortened: (§2)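 Potentiation MICs in CAMHB, with test compound at 32–0.25 μg/mL final alongside a β-lactam held at a fixed 4 μg/mL final. Strains pre-grown 3–5 h and inoculated per CLSI broth microdilution, then incubated 16–20 h at 37° C. MIC read visually.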

[7] = test system: E. cloacae 144200 expressing Class C P99 AmpC; assay: Broth microdilution MIC, E. cloacae 144200 p99 AmpC; type: cell-based; settings: fixed 4 μg/mL ceftazidime; CAMHB, 16-20 hours at 37° C.
Procedure, shortened: as §2

[8] = test system: K. pneumoniae 156319 expressing KPC-3; assay: Broth microdilution MIC, K. pneumoniae 156319 KPC-3; type: cell-based; settings: fixed 4 μg/mL meropenem; CAMHB, 16-20 hours at 37° C.
Procedure, shortened: as §2

[9] = test system: P. aeruginosa Ps296 expressing VIM-2; assay: Broth microdilution MIC, P. aeruginosa Ps296 VIM-2; type: cell-based; settings: fixed 4 μg/mL meropenem; CAMHB, 16-20 hours at 37° C.
Procedure, shortened: as §2

[10] = test system: K. pneumoniae A-1797 expressing KPC-2 and VIM-4; assay: Broth microdilution MIC, K. pneumoniae A-1797 KPC-2/VIM-4; type: cell-based; settings: fixed 4 μg/mL meropenem; CAMHB, 16-20 hours at 37° C.
Procedure, shortened: as §2

[11] = test system: S. aureus MSSA-7 producing penicillinase PC-1; assay: Broth microdilution MIC, S. aureus MSSA-7 PC-1; type: cell-based; settings: fixed 4 μg/mL piperacillin; CAMHB, 16-20 hours at 37° C.
Procedure, shortened: as §2

T1 sequence (P0A3M1 22-286): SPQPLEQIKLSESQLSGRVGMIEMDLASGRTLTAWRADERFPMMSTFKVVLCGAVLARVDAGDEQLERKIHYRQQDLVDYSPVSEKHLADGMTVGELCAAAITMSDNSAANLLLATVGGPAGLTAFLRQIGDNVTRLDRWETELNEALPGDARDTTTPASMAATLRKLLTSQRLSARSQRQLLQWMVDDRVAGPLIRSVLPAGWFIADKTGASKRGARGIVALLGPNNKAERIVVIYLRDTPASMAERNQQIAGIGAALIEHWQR
T2 sequence (Q9F663 25-293, looked up): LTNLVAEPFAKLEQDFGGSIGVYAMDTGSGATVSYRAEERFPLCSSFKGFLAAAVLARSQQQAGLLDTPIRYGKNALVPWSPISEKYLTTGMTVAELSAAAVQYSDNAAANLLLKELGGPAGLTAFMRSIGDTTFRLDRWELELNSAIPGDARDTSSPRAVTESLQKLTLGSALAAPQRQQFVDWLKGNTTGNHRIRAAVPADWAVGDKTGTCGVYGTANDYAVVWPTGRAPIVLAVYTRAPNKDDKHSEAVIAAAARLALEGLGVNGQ
T4 sequence (P05364 21-381): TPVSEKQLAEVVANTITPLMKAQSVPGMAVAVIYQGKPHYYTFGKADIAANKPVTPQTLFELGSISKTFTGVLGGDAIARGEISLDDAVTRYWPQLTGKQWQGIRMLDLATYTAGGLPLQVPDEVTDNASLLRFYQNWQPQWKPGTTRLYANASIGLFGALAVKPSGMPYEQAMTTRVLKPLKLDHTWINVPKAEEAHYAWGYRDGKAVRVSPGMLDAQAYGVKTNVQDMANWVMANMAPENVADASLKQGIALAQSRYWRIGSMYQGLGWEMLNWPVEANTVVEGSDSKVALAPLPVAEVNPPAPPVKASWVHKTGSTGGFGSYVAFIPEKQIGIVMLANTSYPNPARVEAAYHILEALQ
T5 sequence (P13661 26-276): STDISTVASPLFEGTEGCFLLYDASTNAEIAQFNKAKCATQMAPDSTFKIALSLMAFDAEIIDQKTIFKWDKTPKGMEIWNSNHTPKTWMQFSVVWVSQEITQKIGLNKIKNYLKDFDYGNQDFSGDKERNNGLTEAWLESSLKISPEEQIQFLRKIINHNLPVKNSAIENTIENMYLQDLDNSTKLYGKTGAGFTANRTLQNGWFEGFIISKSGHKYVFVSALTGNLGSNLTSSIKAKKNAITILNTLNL

Row | Structure (SMILES) | IC50 [1] [nM] | IC50 [2] [nM] | IC50 [3] [nM] | IC50 [4] [nM] | IC50 [5] [nM] | MIC of example compound in presence of fixed β-lactam: Fixed CAZ, E. coli ESBL4 CTX-M-15 [6] | MIC of example compound in presence of fixed β-lactam: Fixed CAZ, E. cl. 144200 p99 AmpC [7] | MIC of example compound in presence of fixed β-lactam: Fixed Mero, K. P. 156319 KPC-3 [8] | MIC of example compound in presence of fixed β-lactam: Fixed Mero, P. aerug. Ps296 VIM-2 [9] | MIC of example compound in presence of fixed β-lactam: Fixed Mero, K. P. A-1797 KPC-2 VIM-4 [10] | MIC of example compound in presence of fixed β-lactam: Fixed Pip, S. aureus MSSA-7 PC-1 [11]
1 | O=C(O)CN1CCN(CC(=O)N[C@H]2Cc3cccc(C(=O)O)c3OB2O)CC1 [Example 25, 3-[2-(4-Carboxymethyl-piperazin-1-yl)-acetylamino]-2-hydroxy-3,4-dihydro-2H-benzo[e][1,2]oxaborinine-8-carboxylic acid] | < 100 | 100 to 1000 | 10000 to 100000 | < 100 | < 100 | C (the MIC in the presence of <4 μg/mL of a β-lactamase inhibitor) | C (the MIC in the presence of <4 μg/mL of a β-lactamase inhibitor) | B (the MIC in the presence of between 8 and 32 μg/mL of a β-lactamase inhibitor) | B (the MIC in the presence of between 8 and 32 μg/mL of a β-lactamase inhibitor) | B (the MIC in the presence of between 8 and 32 μg/mL of a β-lactamase inhibitor) | C (the MIC in the presence of <4 μg/mL of a β-lactamase inhibitor)
2 | N[C@@H]1CCN(CC(=O)N[C@H]2Cc3cccc(C(=O)O)c3OB2O)C1 [Example 6, 3-[2-(R-3-Amino-pyrrolidin-1-yl)-acetylamino]-2-hydroxy-3,4-dihydro-2H-benzo[e][1,2]oxaborinine-8-carboxylic acid] | < 100 | 100 to 1000 | 1000 to 10000 | < 100 | 100 to 1000 | C (the MIC in the presence of <4 μg/mL of a β-lactamase inhibitor) | C (the MIC in the presence of <4 μg/mL of a β-lactamase inhibitor) | C (the MIC in the presence of <4 μg/mL of a β-lactamase inhibitor) | B (the MIC in the presence of between 8 and 32 μg/mL of a β-lactamase inhibitor) | B (the MIC in the presence of between 8 and 32 μg/mL of a β-lactamase inhibitor) | A (an MIC of the fixed β-lactam antibiotic in the presence of >32 μg/mL of a β-lactamase inhibitor)
3 | NC1CN(CC(=O)N[C@H]2Cc3cccc(C(=O)O)c3OB2O)CCC1O (some centres unmarked) [Example 26, 3-[2-(3-Amino-4-hydroxy-piperidin-1-yl)-acetylamino]-2-hydroxy-3,4-dihydro-2H-benzo[e][1,2]oxaborinine-8-carboxylic acid] | 100 to 1000 | 100 to 1000 | 10000 to 100000 | < 100 | 100 to 1000 | C (the MIC in the presence of <4 μg/mL of a β-lactamase inhibitor) | C (the MIC in the presence of <4 μg/mL of a β-lactamase inhibitor) | C (the MIC in the presence of <4 μg/mL of a β-lactamase inhibitor) | C (the MIC in the presence of <4 μg/mL of a β-lactamase inhibitor) | C (the MIC in the presence of <4 μg/mL of a β-lactamase inhibitor) | A (an MIC of the fixed β-lactam antibiotic in the presence of >32 μg/mL of a β-lactamase inhibitor)
4 | N=C(N)NCC1CCCN(CC(=O)N[C@H]2Cc3cccc(C(=O)O)c3OB2O)C1 (some centres unmarked) [Example 37, 3-[2-(3-Guanidinomethyl-piperidin-1-yl)-acetylamino]-2-hydroxy-3,4-dihydro-2H-benzo[e][1,2]oxaborinine-8-carboxylic acid] | 100 to 1000 | 100 to 1000 | 100 to 1000 | < 100 | 100 to 1000 | C (the MIC in the presence of <4 μg/mL of a β-lactamase inhibitor) | C (the MIC in the presence of <4 μg/mL of a β-lactamase inhibitor) | C (the MIC in the presence of <4 μg/mL of a β-lactamase inhibitor) | A (an MIC of the fixed β-lactam antibiotic in the presence of >32 μg/mL of a β-lactamase inhibitor) | B (the MIC in the presence of between 8 and 32 μg/mL of a β-lactamase inhibitor) | C (the MIC in the presence of <4 μg/mL of a β-lactamase inhibitor)
5 | O=C(CN1CCCNCC1)N[C@H]1Cc2cccc(C(=O)O)c2OB1O [Example 13, 3-(2-[1,4]Diazepan-1-yl-acetylamino)-2-hydroxy-3,4-dihydro-2H-benzo[e][1,2]oxaborinine-8-carboxylic acid] | 100 to 1000 | 1000 to 10000 | 10000 to 100000 | < 100 | 100 to 1000 | C (the MIC in the presence of <4 μg/mL of a β-lactamase inhibitor) | C (the MIC in the presence of <4 μg/mL of a β-lactamase inhibitor) | C (the MIC in the presence of <4 μg/mL of a β-lactamase inhibitor) | B (the MIC in the presence of between 8 and 32 μg/mL of a β-lactamase inhibitor) | B (the MIC in the presence of between 8 and 32 μg/mL of a β-lactamase inhibitor) | C (the MIC in the presence of <4 μg/mL of a β-lactamase inhibitor)
6 | NCCC(=O)NC1CCN(CC(=O)N[C@H]2Cc3cccc(C(=O)O)c3OB2O)CC1 [Example 27, 3-{2-[4-(3-Amino-propionylamino)-piperidin-1-yl]-acetylamino}-2-hydroxy-3,4-dihydro-2H-benzo[e][1,2]oxaborinine-8-carboxylic acid] | 100 to 1000 | 100 to 1000 | 10000 to 100000 | < 100 | 100 to 1000 | C (the MIC in the presence of <4 μg/mL of a β-lactamase inhibitor) | B (the MIC in the presence of between 8 and 32 μg/mL of a β-lactamase inhibitor) | B (the MIC in the presence of between 8 and 32 μg/mL of a β-lactamase inhibitor) | B (the MIC in the presence of between 8 and 32 μg/mL of a β-lactamase inhibitor) | B (the MIC in the presence of between 8 and 32 μg/mL of a β-lactamase inhibitor) | A (an MIC of the fixed β-lactam antibiotic in the presence of >32 μg/mL of a β-lactamase inhibitor)
7 | NC1CCN(CC(=O)N[C@H]2Cc3cccc(C(=O)O)c3OB2O)CC1N (some centres unmarked) [Example 28, 3-[2-(3,4-Diamino-piperidin-1-yl)-acetylamino]-2-hydroxy-3,4-dihydro-2H-benzo[e][1,2]oxaborinine-8-carboxylic acid] | 10000 to 100000 | < 100 | 10000 to 100000 | < 100 | < 100 | C (the MIC in the presence of <4 μg/mL of a β-lactamase inhibitor) | C (the MIC in the presence of <4 μg/mL of a β-lactamase inhibitor) | C (the MIC in the presence of <4 μg/mL of a β-lactamase inhibitor) | C (the MIC in the presence of <4 μg/mL of a β-lactamase inhibitor) | B (the MIC in the presence of between 8 and 32 μg/mL of a β-lactamase inhibitor) | C (the MIC in the presence of <4 μg/mL of a β-lactamase inhibitor)
